This passage reports inhibition results from patent US11225480B2, “Malic enzyme inhibitors” (SUN PHARMA ADVANCED RESEARCH COMPANY LTD, priority 2019, dated 2022).

Type in all cases: biochemical
Test [1] deals with T1, human ME3 enzyme (Homo sapiens, UniProt Q16798).
T1 sequence (Q16798 1-604): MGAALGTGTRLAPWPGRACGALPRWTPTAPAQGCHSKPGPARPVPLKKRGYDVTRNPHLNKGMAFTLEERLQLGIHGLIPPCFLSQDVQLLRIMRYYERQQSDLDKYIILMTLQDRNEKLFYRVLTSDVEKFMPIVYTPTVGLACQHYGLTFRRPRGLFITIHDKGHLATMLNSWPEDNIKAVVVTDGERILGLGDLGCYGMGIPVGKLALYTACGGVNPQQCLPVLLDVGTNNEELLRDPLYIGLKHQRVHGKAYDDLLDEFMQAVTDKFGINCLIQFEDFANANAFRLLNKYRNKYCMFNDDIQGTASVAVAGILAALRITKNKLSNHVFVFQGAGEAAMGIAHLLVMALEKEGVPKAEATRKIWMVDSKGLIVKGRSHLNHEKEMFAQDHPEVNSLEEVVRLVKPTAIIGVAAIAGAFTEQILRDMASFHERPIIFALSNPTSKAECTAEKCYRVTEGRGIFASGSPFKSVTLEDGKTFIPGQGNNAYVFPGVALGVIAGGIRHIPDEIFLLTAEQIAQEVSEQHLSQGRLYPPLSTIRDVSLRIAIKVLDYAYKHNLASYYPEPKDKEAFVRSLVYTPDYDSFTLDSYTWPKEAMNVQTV
As to the kind of experiment: ME3 inhibition assay (diaphorase/resazurin coupled fluorescence). The conditions noted are these: 10 μM compound concentration; read-out: Malic Enzyme 3 % inhibition (10 μM). The gist of the method:
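Coupled read-out: NADPH made by human ME3 (20 nM stock) drives diaphorase conversion of resazurin (50 μM) to resorufin; buffer 50 mM Tris-HCl pH 7.5, 10 mM MnCl2, 3 mM L-malate.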
(In general: Resazurin is reduced to fluorescent resorufin, in cell work by metabolically active cells.)

Test [2] concerns the target human ME2 enzyme (Homo sapiens, UniProt P23368). Description: ME2 inhibition assay (diaphorase/resazurin coupled fluorescence). The note with it: 10 μM compound concentration; read-out: Malic Enzyme 2 % inhibition (10 μM). The procedure: ME2 catalyzes the oxidative decarboxylation of malate to pyruvate with conversion of the co-factor β-NAD+ to β-NADH. In the fluorescence assay, a coupled reaction is set up where in an enzyme, Diaphorase, utilizes NADH generated by ME2, to convert the dye resazurin to a fluorescent molecule resorufin. Resorufin has a characteristic fluorescence with excitation/emission at 540/600 nm (SLAS Discov., 2017 April 1:2472555217706649).
The enzyme activity inhibition assay is set up in a 200 μL final reaction volume in a 96-well plate. As per the experimental design, 2 μL of the compounds at 100× the desired concentration (10 μM) in DMSO were added to the respective wells with 178 μL of assay buffer (50 mM Tris-HCl pH 7.5, 10 mM MnCl2, 7 mM L-malate, 50 μM Resazurin and 0.025 mg/ml Diapharose). The 96-well plate was incubated on a plate shaker at room temperature for 15 minutes protected from light. The well contents were gently mixed by adding 10 μL of 60 nM human ME2 enzyme to the wells and the plate was incubated on a shaker at room temperature for 5 minutes protected from light. Suitable ‘enzyme only’ and ‘no enzyme’ controls were included in the experiment. The enzymatic reaction was started by adding 10 μL of 2 mM β-NAD+. The reaction was gently mixed and the plate was initially left on a shaker at room temperature for −7 minutes protected from light. Later, the plate was incubated without shaking at room temperature for 2 hours. At the end of 2 hours, the fluorescence of the wells was measured at excitation 540 nm and emission 600 nm. The % enzyme activity of the compounds is obtained by normalizing the data with enzyme only (100%) and no enzyme controls (0%) using GraphPad Prism software 7.04.

Test [3] has as its target T2, human ME1 enzyme (Homo sapiens, UniProt P48163).
T2 sequence (P48163 1-572): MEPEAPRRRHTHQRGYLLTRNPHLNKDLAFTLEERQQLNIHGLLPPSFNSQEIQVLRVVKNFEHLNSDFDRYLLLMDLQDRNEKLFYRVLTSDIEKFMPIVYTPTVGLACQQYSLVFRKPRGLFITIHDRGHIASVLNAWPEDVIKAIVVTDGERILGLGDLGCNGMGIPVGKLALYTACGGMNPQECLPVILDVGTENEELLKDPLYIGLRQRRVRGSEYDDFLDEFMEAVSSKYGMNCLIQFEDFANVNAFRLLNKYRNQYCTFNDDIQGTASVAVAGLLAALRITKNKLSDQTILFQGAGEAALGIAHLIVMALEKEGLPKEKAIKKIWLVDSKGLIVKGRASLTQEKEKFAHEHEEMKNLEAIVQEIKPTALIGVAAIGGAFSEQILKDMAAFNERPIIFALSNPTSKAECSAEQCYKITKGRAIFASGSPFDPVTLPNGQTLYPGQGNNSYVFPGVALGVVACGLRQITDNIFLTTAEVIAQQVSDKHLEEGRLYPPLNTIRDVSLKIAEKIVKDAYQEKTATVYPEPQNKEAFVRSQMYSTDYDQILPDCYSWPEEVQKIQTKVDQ
As to the kind of experiment: ME1 inhibition assay (diaphorase/resazurin coupled fluorescence). The conditions noted are these: 10 μM compound concentration; read-out: Malic Enzyme 1 % inhibition (10 μM). The procedure:
ME1 catalyzes the oxidative decarboxylation of malate to pyruvate with conversion of the co-factor β-NADP+ to β-NADPH. In the fluorescence assay, a coupled reaction is set up where in an enzyme, Diaphorase, utilizes NADPH generated by ME1, to convert the dye resazurin to a fluorescent molecule resorufin. Resorufin has a characteristic fluorescence with excitation/emission at 540/600 nm (SLAS Discov., 2017 April 1:2472555217706649).
The enzyme activity inhibition assay is set up in a 200 μL final reaction volume in a 96-well plate. As per the experimental design, 2 μL of the compounds at 100× the desired concentration (10 μM) in DMSO were added to the respective wells with 178 μL of assay buffer (50 mM Tris-HCl pH 7.5, 10 mM MnCl2, 2 mM L-malate, 10 μM Resazurin and 0.01 mg/ml Diapharose). The 96-well plate was incubated on a plate shaker at room temperature for 15 minutes protected from light. The well contents were gently mixed by adding 10 μL of 20 nM human ME1 enzyme to the wells and the plate was incubated on a shaker at room temperature for 5 minutes protected from light. Suitable ‘enzyme only’ and ‘no enzyme’ controls were included in the experiment. The enzymatic reaction was started by adding 10 μL of 0.3 mM D-NADP+. The reaction was gently mixed and the plate was initially left on a shaker at room temperature for −7 minutes protected from light. Later, the plate was incubated without shaking at room temperature for 2 hours. At the end of 2 hours, the fluorescence of the wells was measured at excitation 540 nm and emission 600 nm. The % enzyme activity of the compounds is obtained by normalizing the data with enzyme only (100%) and no enzyme controls (0%) using GraphPad Prism software 7.04.

Sequence of human ME2 enzyme (P23368 19-584): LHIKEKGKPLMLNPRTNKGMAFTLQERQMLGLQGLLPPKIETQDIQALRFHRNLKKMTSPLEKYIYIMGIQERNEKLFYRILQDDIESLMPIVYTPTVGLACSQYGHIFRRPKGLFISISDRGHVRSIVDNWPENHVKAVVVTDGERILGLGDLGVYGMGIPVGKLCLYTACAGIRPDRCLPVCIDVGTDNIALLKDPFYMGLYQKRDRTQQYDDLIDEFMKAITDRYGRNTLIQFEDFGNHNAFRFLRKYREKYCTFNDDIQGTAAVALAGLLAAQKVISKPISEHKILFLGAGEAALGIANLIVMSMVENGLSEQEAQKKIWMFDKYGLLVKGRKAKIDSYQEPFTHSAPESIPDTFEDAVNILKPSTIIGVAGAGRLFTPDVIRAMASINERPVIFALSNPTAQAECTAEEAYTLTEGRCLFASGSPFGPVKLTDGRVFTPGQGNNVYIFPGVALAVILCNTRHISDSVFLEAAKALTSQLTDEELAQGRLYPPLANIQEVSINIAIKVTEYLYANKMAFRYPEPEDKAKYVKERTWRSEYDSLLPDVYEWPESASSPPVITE

With `Cc1[nH]c2ccc(F)cc2c1CC(=O)N1CCN(c2ccc(O)cn2)CC1` [I.166, 2-(5-Fluoro-2-methyl-1H-indol-3-yl)-1-[4-(5-hydroxy-pyridin-2-yl)-piperazin-1-yl]-ethanone], the inhibition at 10 µM in test [1], in test [2] and in test [3] was over 90% throughout.
As for `O=C(c1c2ccccc2nc2ccccc12)N1CCN(c2ccc(O)cc2)CC1` [I.9, Acridin-9-yl-[4-(4-hydroxy-phenyl)-piperazin-1-yl]-methanone], the inhibition at 10 µM in test [1], in test [2] and in test [3] was over 90% throughout.
As for `O=C(CCc1cccc(F)c1)N1CCN(c2ccc(O)cn2)CC1` [I.92, 3-(3-Fluoro-phenyl)-1-[4-(5-hydroxy-pyridin-2-yl)-piperazin-1-yl]-propan-1-one], the inhibition at 10 µM in test [1], in test [2] and in test [3] was over 90% in each case.
Take `O=C(C(O)Cc1ccccc1)N1CCN(c2ccc(O)cn2)CC1` (stereo not drawn) [I.144, 2-Hydroxy-1-[4-(5-hydroxy-pyridin-2-yl)-piperazin-1-yl]-3-phenyl-propan-1-one]: the results for the inhibition at 10 µM in test [1], in test [2] and in test [3] were over 90%, over 90% and 50 to 69%, respectively.
Take `O=C(O)c1ccc(-c2cc(C(=O)N3CCN(c4ccc(O)cc4)CC3)cc(N3CCOCC3)n2)cc1` [I.42, 4-[4-[4-(4-Hydroxy-phenyl)-piperazine-1-carbonyl]-6-morpholino-2-pyridyl]-benzoic acid]: the inhibition at 10 µM in test [1], in test [2] and in test [3] was over 90% each time.
`CC(CC(=O)N1CCN(c2ccc(O)cn2)CC1)c1ccccc1` (stereo not drawn) [I.115, 1-[4-(5-Hydroxy-pyridin-2-yl)-piperazin-1-yl]-3-phenyl-butan-1-one dihydro-chloride]: the inhibition at 10 µM in test [1], in test [2] and in test [3] was over 90% each time.
Consider `O=C(CC12CC3CC(CC(C3)C1)C2)N1CCN(c2ccc(O)cn2)CC1` [I.55, 2-(1-adamantyl)-1-[4-(5-hydroxy-2-pyridyl)piperazin-1-yl]ethanone], for which the inhibition (usually the share of the control response that was lost under treatment) at 10 µM is over 90% in test [1], 70 to 89% in test [2] and over 90% in test [3].
As to `O=C(C1CC(O)(c2ccccc2)C1)N1CCN(c2ccc(O)cn2)CC1` (stereo not drawn) [I.124, (3-Hydroxy-3-phenylcyclo-butyl)-[4-(5-hydroxy-pyridin-2-yl)-piperazin-1-yl]-methanone], the inhibition at 10 µM in test [1], in test [2] and in test [3] was over 90% throughout.
Take `O=C(CCc1ccc(Cl)c(Cl)c1)N1CCN(c2ccc(O)cn2)CC1` [I.79, 3-(3,4-Dichloro-phenyl)-1-[4-(5-hydroxy-pyridin-2-yl)-piperazin-1-yl]-propan-1-one]: the inhibition at 10 µM in test [1], in test [2] and in test [3] was over 90% throughout.
Take `O=C(c1c[nH]c2ccccc2c1=O)N1CCN(c2ccc(O)cn2)CC1` [I.54, 3-[4-(5-Hydroxy-2-pyridyl)-piperazine-1-carbonyl]-1H-quinolin-4-one]: the figures for the inhibition at 10 µM in test [1], in test [2] and in test [3] were over 90%, 50 to 69% and 70 to 89%, respectively.
Taken in the same sequence, the figures for `O=C(CCc1ccc(Cl)cc1)N1CCN(c2ccc(O)cn2)CC1` [I.82, 3-(4-Chloro-phenyl)-1-[4-(5-hydroxy-pyridin-2-yl)-piperazin-1-yl]-propan-1-one] were over 90%, over 90% and over 90%.
In the same order, the values of `O=C(Cc1c[nH]c2cc(Cl)c(Cl)cc12)N1CCN(c2ccc(O)cn2)CC1` [I.174, 2-(5,6-Dichloro-1H-indol-3-yl)-1-[4-(5-hydroxy-pyridin-2-yl)-piperazin-1-yl]-ethanone] are over 90%, over 90% and over 90%.
Taken in the same sequence, the figures for `O=C(CC(c1ccccc1)c1ccccc1)N1CCN(c2ccc(O)cn2)CC1` [I.75, 1-[4-(5-Hydroxy-2-pyridyl)-piperazin-1-yl]-3,3-diphenyl-propan-1-one] were over 90%, 70 to 89% and over 90%.
Regarding `O=C(CCc1cc(F)c(F)c(F)c1)N1CCN(c2ccc(O)cn2)CC1` [I.170, 1-[4-(5-Hydroxy-pyridin-2-yl)-piperazin-1-yl]-3-(3,4,5-trifluoro-phenyl)-propan-1-one], the inhibition at 10 µM in test [1], in test [2] and in test [3] was over 90% throughout.
In the case of `O=C(c1cc2ccccc2oc1=O)N1CCN(c2ccc(O)cn2)CC1` [I.73, 3-[4-(5-Hydroxy-2-pyridyl)-piperazine-1-carbonyl]-chromen-2-one], the inhibition at 10 µM in test [1] was over 90%; in test [2] it was 70 to 89%; in test [3] it was 70 to 89%.
Regarding `O=C(CC12CC3CC(CC(O)(C3)C1)C2)N1CCN(c2ccc(O)cn2)CC1` [I.56, 2-(3-Hydroxy-1-adamantyl)-1-[4-(5-hydroxy-2-pyridyl)-piperazin-1-yl]ethanone], the inhibition at 10 µM was over 90% in test [1], 70 to 89% in test [2] and 50 to 69% in test [3].
Taken in the same sequence, the figures for `O=C(c1c[nH]c2ncccc12)N1CCN(c2ccc(O)cn2)CC1` [I.63, [4-(5-Hydroxy-pyridin-2-yl)-piperazin-1-yl]-(1H-pyrrolo[2,3-b]pyridin-3-yl)-methanone] were over 90%, 70 to 89% and 70 to 89%.
